This is an account of results in ChEMBL document CHEMBL5352396, “Synthesis and biological evaluation of novel FiVe1 derivatives as potent and selective agents for the treatment of mesenchymal cancers” (Eur J Med Chem, 2022).

In brackets after ≈: the same amount, converted by molar mass. Where only a bound is given, the exact number is not on record here.

The test system of one data set is HT-1080. Description: cells. As to conditions: Homo sapiens, HT-1080, 72 h.
For another data set, the system named is RD. Description: cells. As to conditions: Homo sapiens, 72 h.
The subject of the next data set is GCT. Description: cells. The note with it: Homo sapiens, 72 h.
A further data set relates to MCF7. Description: cells. The note with it: Homo sapiens, MCF7, 72 h.
Data set [1] in a line: Kinetic solubility of the compound in DPBS buffer at pH 7.4 incubated for 16 hrs under shaking condition by HPLC analysis. The note with it: read-out: Kinetic_solubility. The format is physicochemical.
The nature of data set [2]: Metabolic stability in CD-1 mouse liver microsomes assessed as half life at 100 uM measured upto 60 mins in presence of NADPH by LC-MS/MS analysis. The format is ADME, Microsome. The note with it: for t1/2: mouse, microsomes, 1 h, 100 µM. (In general: Liver microsomes are a subcellular fraction often used to study metabolism.)
Data set [3] can be described thus: Metabolic stability in CD-1 mouse liver microsomes assessed as intrinsic clearance at 100 uM measured upto 60 mins in presence of NADPH by LC-MS/MS analysis. The format is ADME, Microsome. As to conditions: for microsomal intrinsic clearance: mouse, microsomes, 1 h, 100 µM.
The nature of data set [4]: Metabolic stability in CD-1 mouse liver microsomes assessed as parent compound remaining at 100 uM measured after 60 mins in presence of NADPH by LC-MS/MS analysis. The format is ADME, Microsome. As to conditions: read-out: Stability.

On to `Oc1cc(Cl)cc(N2CCN(c3cnnc4c(Cl)cccc34)CC2)c1`, for which the IC50 (in general, the concentration needed to halve the response being measured) is 0.086 µM with HT-1080, 0.083 µM in the data set with RD, 0.057 µM in the data set with GCT and 12.1 µM in the data set with MCF7.
The matching figures for `Clc1cccc(N2C[C@H]3CC[C@@H](C2)N3c2cnnc3c(Cl)cccc23)c1`: 5.57 µM, 6.15 µM, 4.03 µM and above 20 µM.
Consider `Nc1cc(Cl)cc(N2CCN(c3cnnc4c(Cl)cccc34)CC2)c1`, for which the IC50 in the data set on HT-1080 is 0.647 µM; with RD, 1.32 µM; with GCT it was 0.498 µM; with MCF7, above 20 µM.
The matching figures for `Clc1cccc(N2CCN(c3cnnc4ccccc34)CC2)c1`: above 20 µM, above 20 µM, above 20 µM and above 20 µM.
In the same order, the values of `Clc1cc(N2CCCC2)cc(N2CCN(c3cnnc4c(Cl)cccc34)CC2)c1` are above 20 µM, above 20 µM, above 20 µM and above 20 µM.
Regarding `CN(C)CCCOc1cc(Cl)cc(N2CCN(c3cnnc4c(Cl)cccc34)CC2)c1`, the solubility kinetic at 16 h in data set [1] was determined as 48 µM (≈ 22.1 µg/mL). The IC50 is 2.72 µM in the data set with HT-1080, 3.69 µM in the data set with RD and 4.56 µM with MCF7.
In the case of `OC(O)COc1cc(Cl)cc(N2CCN(c3cnnc4c(Cl)cccc34)CC2)c1`, in data set [2] (CD-1, mouse, liver microsomes), the half-life (commonly the time in which the quantity being followed falls by half) at 100 µM was found to be 42.7 min. Further, the microsomal CLint at 100 µM in data set [3] (CD-1, mouse, liver microsomes, read-out: CLH) came out at 32.5 µL/min/mg. Moreover, the remaining at 1 h, 100 µM in data set [4] worked out at 35.7%.
Take `Clc1cc(OCCN2CCOCC2)cc(N2CCN(c3cnnc4c(Cl)cccc34)CC2)c1`: the solubility kinetic at 16 h in data set [1] was below 1 µM. The IC50 with HT-1080, in the data set on RD, in the data set with GCT and in the data set on MCF7 was above 20 µM in each case.
For the compound `Clc1cc(Cl)cc(N2CCN(c3cnnc4c(Cl)cccc34)CC2)c1`, the IC50 with HT-1080 was 0.412 µM; in the data set with RD, 0.623 µM; with GCT it was 0.315 µM; in the data set with MCF7, above 20 µM.
In the same order, the values of `COc1cccc2c(N3CCN(c4cccc(Cl)c4)CC3)cnnc12` are above 20 µM, above 20 µM, above 20 µM and above 20 µM.
In the same order, the values of `COc1cccc(N2CCN(c3cnnc4c(Cl)cccc34)CC2)c1` are 0.598 µM, 0.884 µM, 0.402 µM and above 20 µM.
In the same order, the values of `N#Cc1cc(Cl)cc(N2CCN(c3cnnc4c(Cl)cccc34)CC2)c1` are 0.378 µM, 0.402 µM, 0.189 µM and above 20 µM.
Turning to `CN(C)CCOc1cc(Cl)cc(N2CCN(c3cnnc4c(Cl)cccc34)CC2)c1`, in data set [1], the solubility kinetic at 16 h came out at 131 µM (≈ 58.5 µg/mL). The IC50 in the data set on HT-1080 stood at 4.72 µM; in the data set with RD, 7.02 µM; with GCT, 6.49 µM; in the data set on MCF7 it was 16 µM.
Regarding `Fc1c(Cl)cc(N2CCN(c3cnnc4c(Cl)cccc34)CC2)cc1Cl`, the t1/2 in data set [2] was 32.5 min. The microsomal intrinsic clearance in data set [3] stood at 42.6 µL/min/mg. Further, the remaining at 1 h, 100 µM in data set [4] turned out to be 29.6%.
`CC(=O)Nc1cc(Cl)cc(N2CCN(c3cnnc4c(Cl)cccc34)CC2)c1`: the IC50 with HT-1080 is 10.8 µM; in the data set with RD, 7.41 µM; in the data set on GCT it was 10.8 µM; in the data set on MCF7, above 20 µM.
For the compound `Clc1cc(OCCOC2CCCCO2)cc(N2CCN(c3cnnc4c(Cl)cccc34)CC2)c1` (stereo not drawn), the solubility kinetic at 16 h in data set [1] is below 1 µM. The 50% inhibitory concentration (IC50) with HT-1080, in the data set on RD, with GCT and in the data set with MCF7 was above 20 µM throughout.
Regarding `Clc1cccc(N2C[C@@H]3CN(c4cnnc5c(Cl)cccc45)C[C@@H]3C2)c1`, the IC50 in the data set on HT-1080, in the data set on RD, with GCT and with MCF7 was above 20 µM in each case.
Regarding `COCCOc1cc(Cl)cc(N2CCN(c3cnnc4c(Cl)cccc34)CC2)c1`, in data set [1], the solubility kinetic at 16 h is below 1 µM. Further, the IC50 in the data set with HT-1080 is 1.7 µM; with RD, 1.35 µM; with GCT it was 1.06 µM; in the data set on MCF7, above 20 µM.
Take `Clc1cccc(N2CCN(c3ccnnc3)CC2)c1`: the IC50 in the data set with HT-1080, in the data set with RD, with GCT and in the data set with MCF7 was above 20 µM each time.
For `Clc1cccc(C2CCN(c3cnnc4c(Cl)cccc34)CC2)c1`, the IC50 in the data set with HT-1080, in the data set with RD, in the data set with GCT and in the data set on MCF7 was above 20 µM throughout.
As for `COc1cc(OC)cc(N2CCN(c3cnnc4c(Cl)cccc34)CC2)c1`, in data set [2], the t1/2 came to 2.1 min. For the same compound, the microsomal intrinsic clearance in data set [3] was 657.4 µL/min/mg. Moreover, in data set [4], the remaining at 1 h, 100 µM was determined as 0.1%. Besides, the IC50 with HT-1080 came out at 0.037 µM; with RD, 0.033 µM; in the data set with GCT it was 0.033 µM; in the data set on MCF7, 15.5 µM.
Take `Clc1cccc(N2CCCN(c3cnnc4c(Cl)cccc34)CC2)c1`: the IC50 in the data set on HT-1080, in the data set with RD, with GCT and with MCF7 was above 20 µM throughout.
For the compound `Clc1cccc(N2CCN(c3cc(-c4ccccc4)ncn3)CC2)c1`, the IC50 in the data set on HT-1080, with RD, with GCT and in the data set with MCF7 was above 20 µM throughout.
`Clc1cccc(N2CC3CC2CN3c2cnnc3c(Cl)cccc23)c1` (stereo not drawn): the 50% inhibitory concentration (IC50) with HT-1080 is 3.23 µM; in the data set on RD, 5.6 µM; in the data set on GCT, 8.86 µM; with MCF7 it was above 20 µM.
As to `COC(COc1cc(Cl)cc(N2CCN(c3cnnc4c(Cl)cccc34)CC2)c1)OC`, in data set [1], the solubility kinetic at 16 h was below 1 µM. In addition, the IC50 in the data set with RD was 19.1 µM; in the data set with GCT it was 2.93 µM; in the data set on MCF7 it was above 20 µM.
Take `Oc1cc(O)cc(N2CCN(c3cnnc4c(Cl)cccc34)CC2)c1`: the IC50 is 0.956 µM in the data set with HT-1080, 1.28 µM in the data set on RD, 0.656 µM with GCT and above 20 µM in the data set with MCF7.
In the same order, the values of `COc1ccc2c(N3CCN(c4cccc(Cl)c4)CC3)cnnc2c1Cl` are above 20 µM, above 20 µM, above 20 µM and above 20 µM.
In the same order, the values of `Clc1cccc(N2CCN(c3ncnc4ccccc34)CC2)c1` are above 20 µM, above 20 µM, above 20 µM and above 20 µM.
Consider `Fc1ccc(N2CCN(c3cnnc4c(Cl)cccc34)CC2)cc1Cl`, for which the t1/2 in data set [2] is given as 6.7 min. The microsomal intrinsic clearance in data set [3] came to 205.8 µL/min/mg. In data set [4], the remaining at 1 h, 100 µM came to 0.4%.
Regarding `Clc1cccc(N2CCN(c3ccnc4ccccc34)CC2)c1`, the IC50 in the data set with HT-1080, with RD, with GCT and with MCF7 was above 20 µM each time.
In the case of `O=C(O)CCOc1cc(Cl)cc(N2CCN(c3cnnc4c(Cl)cccc34)CC2)c1`, the solubility kinetic at 16 h in data set [1] was above 200 µM. Besides, the half-maximal inhibitory concentration (IC50) with HT-1080 was 1.53 µM; with RD, 1.12 µM; with GCT, 0.756 µM; in the data set with MCF7, above 20 µM.
In the case of `C[C@H]1CN(c2cnnc3c(Cl)cccc23)CCN1c1cc(Cl)cc(Cl)c1`, the IC50 is 1.15 µM in the data set on HT-1080, 1.07 µM in the data set with RD, 1.27 µM in the data set on GCT and above 20 µM with MCF7.
